Measured values reported in patent publication US8278306B2 (Vertex Pharmaceuticals Incorporated, priority 2006, dated 2012).

Biological target: T1, ROCK I (AA 6-553) (Homo sapiens, UniProt Q13464)
T1 construct: ROCK I (AA 6-553)
Experiment: ROCK inhibition assay, standard coupled enzyme system
Type: biochemical
Details: 45 nM ROCK I, 45 μM ATP, 200 μM peptide, 30° C.
Protocol: Reactions were carried out in a solution containing 100 mM HEPES (pH 7.5), 10 mM MgCl2, 25 mM NaCl, 2 mM DTT and 1.5% DMSO.

T1 sequence (Q13464 6-553, species assumed): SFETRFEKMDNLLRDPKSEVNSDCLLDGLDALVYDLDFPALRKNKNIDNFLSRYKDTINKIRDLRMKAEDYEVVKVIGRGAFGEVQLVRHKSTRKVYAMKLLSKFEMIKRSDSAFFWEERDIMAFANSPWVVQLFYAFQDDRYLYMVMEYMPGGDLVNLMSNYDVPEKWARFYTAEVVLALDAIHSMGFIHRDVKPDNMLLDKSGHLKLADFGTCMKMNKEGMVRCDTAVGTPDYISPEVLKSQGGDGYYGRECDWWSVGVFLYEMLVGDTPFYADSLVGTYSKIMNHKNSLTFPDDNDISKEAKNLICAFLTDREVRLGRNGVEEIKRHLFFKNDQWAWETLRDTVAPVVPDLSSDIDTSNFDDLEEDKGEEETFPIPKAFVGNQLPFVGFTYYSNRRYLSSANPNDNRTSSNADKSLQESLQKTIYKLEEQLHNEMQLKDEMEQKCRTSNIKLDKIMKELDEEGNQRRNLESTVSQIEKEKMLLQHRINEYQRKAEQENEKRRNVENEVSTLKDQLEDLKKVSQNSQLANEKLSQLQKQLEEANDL

Structure (SMILES) | Ki [nM]
O=C(Cc1ccc(F)cc1)Nc1nc(-c2ccnc(Cl)c2)cs1 [Compound 2] | 100 to 1000
COc1cc(-c2csc(NC(=O)Cc3ccc(F)cc3)n2)ccn1 [Compound 4] | > 1000
CCOc1cc(-c2csc(NC(=O)Cc3cccc(OC)c3)n2)ccn1 [Compound 5] | > 1000
CCOc1cc(-c2csc(NC(=O)Cc3cc4c(cc3Cl)OCO4)n2)ccn1 [Compound 6] | > 1000
CCOc1cc(-c2csc(NC(=O)Cc3ccc(F)cc3)n2)ccn1 [Compound 7] | > 1000
CCOc1cc(-c2csc(NC(=O)Cc3ccccc3Cl)n2)ccn1 [Compound 8] | > 1000
O=C(Cc1ccccc1Cl)Nc1nc(-c2ccnc(Cl)c2)cs1 [Compound 10] | 100 to 1000
CN(C)c1cc(-c2csc(NC(=O)Cc3ccccc3Cl)n2)ccn1 [Compound 11] | > 1000
CN(C)c1cc(-c2csc(NC(=O)Cc3cc4c(cc3Cl)OCO4)n2)ccn1 [Compound 12] | > 1000
COc1cccc(CC(=O)Nc2nc(-c3ccnc(NCc4ccccc4)c3)cs2)c1 [Compound 14] | > 1000
CCNc1cc(-c2csc(NC(=O)Cc3cccc(OC)c3)n2)ccn1 [Compound 15] | 100 to 1000
CCNc1cc(-c2csc(NC(=O)Cc3ccc(F)cc3F)n2)ccn1 [Compound 21] | 100 to 1000
CCNc1cc(-c2csc(NC(=O)Cc3cc4c(cc3Cl)OCO4)n2)ccn1 [Compound 22] | 100 to 1000
CNc1cc(-c2csc(NC(=O)Cc3ccc(F)cc3F)n2)ccn1 [Compound 23] | 100 to 1000
Nc1cc(-c2csc(NC(=O)Cc3cccc(OCCCCl)c3)n2)ccn1 [Compound 24] | 100 to 1000
O=C(Cc1ccc(F)cc1F)Nc1nc(-c2ccnc(NCc3ccccc3)c2)cs1 [Compound 25] | 100 to 1000
O=C(Cc1cc2c(cc1Cl)OCO2)Nc1nc(-c2ccnc(NCc3ccccc3)c2)cs1 [Compound 26] | 100 to 1000
CNc1cc(-c2csc(NC(=O)Cc3ccccc3Cl)n2)ccn1 [Compound 28] | 100 to 1000
CCNc1cc(-c2csc(NC(=O)Cc3ccccc3Cl)n2)ccn1 [Compound 29] | 100 to 1000
Cc1cc(-c2csc(NC(=O)Cc3ccc(F)cc3F)n2)ccn1 [Compound 30] | 100 to 1000
Cc1cc(-c2csc(NC(=O)Cc3ccccc3Cl)n2)ccn1 [Compound 33] | 100 to 1000

Structure (SMILES) | Ki [nM]
Cc1cc(-c2csc(NC(=O)Cc3ccccc3)n2)ccn1 [Compound 36] | 100 to 1000
Cc1cc(-c2csc(NC(=O)Cc3ccccc3F)n2)ccn1 [Compound 38] | 100 to 1000
Cc1cc(-c2csc(NC(=O)Cc3cccc(OCCCN4CCN(C)CC4)c3)n2)ccn1 [Compound 39] | 100 to 1000
Cc1cc(-c2csc(NC(=O)Cc3ccc(F)cc3)n2)ccn1 [Compound 40] | 100 to 1000
Nc1cc(-c2csc(NC(=O)Cc3ccc(F)cc3)n2)ccn1 [Compound 42] | 100 to 1000
CS(=O)(=O)Nc1ccc(CC(=O)Nc2nc(-c3ccnc(N)c3)cs2)cc1 [Compound 43] | 100 to 1000
Cc1cc(-c2csc(NC(=O)Cc3ccc(NS(C)(=O)=O)cc3)n2)ccn1 [Compound 44] | 100 to 1000
O=C(Cc1ccccc1F)Nc1nc(-c2ccnc(Cl)c2)cs1 [Compound 46] | 100 to 1000
O=C(Cc1ccc(F)cc1F)Nc1nc(-c2ccnc(Cl)c2)cs1 [Compound 47] | 100 to 1000
O=C(Cc1ccccc1)Nc1nc(-c2ccnc(Cl)c2)cs1 [Compound 50] | 100 to 1000
CS(=O)(=O)Nc1cccc(CC(=O)Nc2nc(-c3ccnc(Cl)c3)cs2)c1 [Compound 51] | 100 to 1000
O=C(Cc1ccc(F)cc1)Nc1nc(-c2ccnc(F)c2)cs1 [Compound 57] | 100 to 1000
O=C(Cc1cccc(S(=O)(=O)N2CCOCC2)c1)Nc1cc(-c2ccnc(F)c2)cs1 [Compound 71] | 100 to 1000
CN(C)S(=O)(=O)c1cccc(CC(=O)Nc2cc(-c3ccnc(F)c3)cs2)c1 [Compound 78] | 100 to 1000
CN(C)S(=O)(=O)c1cccc(CC(=O)Nc2cc(-c3ccnc(N)c3)cs2)c1 [Compound 79] | 100 to 1000
Cc1cc(-c2csc(NC(=O)Cc3ccccc3F)c2)ccn1 [Compound 81] | 100 to 1000
Cc1cc(-c2csc(NC(=O)Cc3cccc(NS(C)(=O)=O)c3)c2)ccn1 [Compound 82] | 100 to 1000
Cc1cc(-c2csc(NC(=O)Cc3cccc(S(=O)(=O)N(C)C)c3)c2)ccn1 [Compound 83] | > 1000
Cc1cc(-c2csc(NC(=O)Cc3cccc(NS(=O)(=O)N(C)C)c3)c2)ccn1 [Compound 84] | 100 to 1000
Cc1cc(-c2csc(NC(=O)Cc3ccccc3)c2)ccn1 [Compound 87] | 100 to 1000
NCCC(C(=O)Nc1cc(-c2ccnc(Cl)c2)cs1)c1ccc(F)cc1F (stereo not shown) [Compound 104] | 100 to 1000

Other lines, results leading:

Ki [nM] | Structure (SMILES)
< 100 | Nc1cc(-c2csc(NC(=O)Cc3ccc(F)cc3F)n2)ccn1 [Compound 16]
< 100 | Nc1cc(-c2csc(NC(=O)Cc3cc4c(cc3Cl)OCO4)n2)ccn1 [Compound 17]
< 100 | Nc1cc(-c2csc(NC(=O)Cc3ccccc3Cl)n2)ccn1 [Compound 27]
< 100 | Cc1cc(-c2csc(NC(=O)Cc3cc4c(cc3Cl)OCO4)n2)ccn1 [Compound 32]
< 100 | Nc1cc(-c2csc(NC(=O)Cc3cccc(O)c3)n2)ccn1 [Compound 34]
< 100 | Nc1cc(-c2csc(NC(=O)Cc3ccccc3F)n2)ccn1 [Compound 35]
< 100 | Cc1cc(-c2csc(NC(=O)Cc3cccc(O)c3)n2)ccn1 [Compound 37]
< 100 | Nc1cc(-c2csc(NC(=O)Cc3ccccc3)n2)ccn1 [Compound 41]
< 100 | CN1CCN(CCCOc2cccc(CC(=O)Nc3nc(-c4ccnc(N)c4)cs3)c2)CC1 [Compound 45]
< 100 | O=C(Cc1cccc(O)c1)Nc1nc(-c2ccnc(Cl)c2)cs1 [Compound 48]
< 100 | O=C(Cc1cc2c(cc1Cl)OCO2)Nc1nc(-c2ccnc(Cl)c2)cs1 [Compound 49]
< 100 | Nc1cc(-c2csc(NC(=O)Cc3cccc(OCCCN4CCNCC4)c3)n2)ccn1 [Compound 52]
< 100 | CN1CCN(CCCOc2cccc(CC(=O)Nc3nc(-c4ccnc(Cl)c4)cs3)c2)CC1 [Compound 53]
< 100 | CCN1CCN(CCCOc2cccc(CC(=O)Nc3nc(-c4ccnc(Cl)c4)cs3)c2)CC1 [Compound 54]
< 100 | O=C(Cc1cccc(OCCCN2CCNCC2)c1)Nc1nc(-c2ccnc(Cl)c2)cs1 [Compound 55]
< 100 | O=C(Cc1ccccc1F)Nc1nc(-c2ccnc(F)c2)cs1 [Compound 56]
< 100 | O=C(Cc1ccc(F)cc1F)Nc1nc(-c2ccnc(F)c2)cs1 [Compound 58]

Ki [nM] | Structure (SMILES)
< 100 | CS(=O)(=O)Nc1cccc(CC(=O)Nc2nc(-c3ccnc(F)c3)cs2)c1 [Compound 59]
< 100 | CN1CCN(CCCOc2cccc(CC(=O)Nc3nc(-c4ccnc(F)c4)cs3)c2)CC1 [Compound 60]
< 100 | O=C(Cc1ccccc1)Nc1cc(-c2ccnc(F)c2)cs1 [Compound 66]
< 100 | O=C(Cc1ccc(F)cc1)Nc1cc(-c2ccnc(F)c2)cs1 [Compound 67]
< 100 | CS(=O)(=O)Nc1ccc(F)c(CC(=O)Nc2cc(-c3ccnc(F)c3)cs2)c1 [Compound 68]
< 100 | O=C(Cc1ccc(F)cc1F)Nc1cc(-c2ccnc(F)c2)cs1 [Compound 69]
< 100 | CCN(CC)S(=O)(=O)c1cccc(CC(=O)Nc2cc(-c3ccnc(F)c3)cs2)c1 [Compound 70]
< 100 | CS(=O)(=O)Nc1ccc(F)c(CC(=O)Nc2cc(-c3ccnc(N)c3)cs2)c1 [Compound 76]
< 100 | Cc1cc(-c2csc(NC(=O)Cc3cc(NS(C)(=O)=O)ccc3F)c2)ccn1 [Compound 86]
< 100 | O=C(Cc1cccc(O)c1)Nc1cc(-c2ccnc(F)c2)cs1 [Compound 88]
< 100 | O=C(Cc1ccc(OCCN2CCNCC2)cc1Cl)Nc1cc(-c2ccnc(Cl)c2)cs1 [Compound 95]
< 100 | CN1CCN(CCOc2ccc(CC(=O)Nc3cc(-c4ccnc(Cl)c4)cs3)c(Cl)c2)CC1 [Compound 96]
< 100 | O=C(Cc1ccc(OCCCN2CCNCC2)cc1Cl)Nc1cc(-c2ccnc(Cl)c2)cs1 [Compound 97]
< 100 | CN1CCN(CCCOc2ccc(CC(=O)Nc3cc(-c4ccnc(Cl)c4)cs3)c(Cl)c2)CC1 [Compound 98]
< 100 | O=C(Cc1ccc(OCCCC2CCNCC2)cc1)Nc1cc(-c2ccnc(Cl)c2)cs1 [Compound 99]
< 100 | CS(=O)(=O)Nc1ccc(F)c(CC(=O)Nc2cc(-c3ccnc(Cl)c3)cs2)c1 [Compound 100]
< 100 | CN1CCN(CCOc2cccc(CC(=O)Nc3cc(-c4ccnc(N)c4)cs3)c2)CC1 [Compound 106]
